These results are taken from patent US9187467B2, “2-phenyl benzothiazole linked imidazole compounds as potential anticancer agents and process for the preparation thereof” (Council of Scientific and Industrial Research, priority 2012, dated 2015).

One assay deals with CAKI-1. Further details: unit not given here. As to conditions: previous compounds (U.S. Pat. No. 7,384,966); cited from earlier work.
In another assay the test system is M14. Details: unit not given here. As to conditions: previous compounds (U.S. Pat. No. 7,384,966); cited from earlier work.
Another assay relates to MALME-3M. Further details: unit not given here. As to conditions: previous compounds (U.S. Pat. No. 7,384,966); cited from earlier work.
The next assay deals with SW-620. Further details: unit not given here. As to conditions: previous compounds (U.S. Pat. No. 7,384,966); cited from earlier work.
The subject of a further assay is SNB-75. Details: unit not given here. As to conditions: previous compounds (U.S. Pat. No. 7,384,966); cited from earlier work.
Another assay relates to ACHN. Further details: unit not given here. As to conditions: previous compounds (U.S. Pat. No. 7,384,966); cited from earlier work.
The subject of another assay is HL-60 (TB). Details: unit not given here. As to conditions: previous compounds (U.S. Pat. No. 7,384,966); cited from earlier work.
Another assay deals with OVCAR-3. Further details: unit not given here. As to conditions: previous compounds (U.S. Pat. No. 7,384,966); cited from earlier work.
Another assay concerns LOX IMVI. Further details: unit not given here. As to conditions: previous compounds (U.S. Pat. No. 7,384,966); cited from earlier work.
Another assay deals with NCI/ADR-RES. Details: unit not given here. As to conditions: listed as head printed RES (second line of NCI/ADR-RES); previous compounds (U.S. Pat. No. 7,384,966); cited from earlier work.
A further assay deals with NCI-H522. Further details: unit not given here. As to conditions: previous compounds (U.S. Pat. No. 7,384,966); cited from earlier work.
A further assay concerns SF-539. Further details: unit not given here. As to conditions: previous compounds (U.S. Pat. No. 7,384,966); cited from earlier work.
The test system of the next assay is HS 578T. Details: unit not given here. As to conditions: previous compounds (U.S. Pat. No. 7,384,966); cited from earlier work.
The test system of another assay is CCRF-CEM. Details: unit not given here. As to conditions: previous compounds (U.S. Pat. No. 7,384,966); cited from earlier work.
A further assay concerns SN12C. Further details: unit not given here. As to conditions: previous compounds (U.S. Pat. No. 7,384,966); cited from earlier work.
In another assay the test system is SF-295. Details: unit not given here. As to conditions: previous compounds (U.S. Pat. No. 7,384,966); cited from earlier work.
The test system of another assay is SNB-19. Further details: unit not given here. As to conditions: previous compounds (U.S. Pat. No. 7,384,966); cited from earlier work.
A further assay deals with PC-3. Further details: unit not given here. As to conditions: previous compounds (U.S. Pat. No. 7,384,966); cited from earlier work.
In a further assay the test system is HOP-62. Details: unit not given here. As to conditions: previous compounds (U.S. Pat. No. 7,384,966); cited from earlier work.
A further assay has as its system OVCAR-8. Further details: unit not given here. As to conditions: previous compounds (U.S. Pat. No. 7,384,966); cited from earlier work.
The test system of a further assay is BT-549. Further details: unit not given here. As to conditions: previous compounds (U.S. Pat. No. 7,384,966); cited from earlier work.
A further assay relates to SF-268. Details: unit not given here. As to conditions: previous compounds (U.S. Pat. No. 7,384,966); cited from earlier work.
The subject of another assay is UACC-62. Further details: unit not given here. As to conditions: previous compounds (U.S. Pat. No. 7,384,966); cited from earlier work.
A further assay concerns MOLT-4. Further details: unit not given here. As to conditions: previous compounds (U.S. Pat. No. 7,384,966); cited from earlier work.
Another assay relates to 786-0. Details: unit not given here. As to conditions: previous compounds (U.S. Pat. No. 7,384,966); cited from earlier work.
Another assay relates to UO-31. Details: unit not given here. As to conditions: previous compounds (U.S. Pat. No. 7,384,966); cited from earlier work.
The next assay has as its system DU-145. Details: unit not given here. As to conditions: previous compounds (U.S. Pat. No. 7,384,966); cited from earlier work.
For the next assay, the system named is U251. Further details: unit not given here. As to conditions: previous compounds (U.S. Pat. No. 7,384,966); cited from earlier work.
The test system of the next assay is EKVX. Details: unit not given here. As to conditions: previous compounds (U.S. Pat. No. 7,384,966); cited from earlier work.
The next assay has as its system A549/ATCC. Further details: unit not given here. As to conditions: previous compounds (U.S. Pat. No. 7,384,966); cited from earlier work.
The subject of the next assay is UACC-257. Details: unit not given here. As to conditions: previous compounds (U.S. Pat. No. 7,384,966); cited from earlier work.
The subject of the next assay is NCI-H23. Details: unit not given here. As to conditions: previous compounds (U.S. Pat. No. 7,384,966); cited from earlier work.
A further assay relates to K-562. Further details: unit not given here. As to conditions: previous compounds (U.S. Pat. No. 7,384,966); cited from earlier work.
Another assay deals with MDA-MB-231/ATCC. Details: unit not given here. As to conditions: previous compounds (U.S. Pat. No. 7,384,966); cited from earlier work.
Assay [1] relates to microtubule network of MCF-7 cells. The experiment in a line: Effect on microtubule network. Type of assay: cell-based. As to conditions: 2 μM. As to the method:
FIG. 2 represents effect of compound 7d, the effective compound on the microtubule network of MCF-7 cells untreated cells (Con), nocodazole (Noc) and 7d at 2 μM concentration. Microtubules and unassembled tubulin are shown in green and DNA was stained with nuclear dye DAPI (4,6-diamidino-2-phenylindole) is shown in blue colour.
Inhibition of tubulin is associated with G2/M cell cycle arrest by interrupting chromosome segregation and affecting mitotic spindle formation. […] It was considered of interest to understand the mechanism of anti-cancer activity of compound 7d with regard to interaction with microtubule system. MCF-7 breast cancer cells were treated with Nocodazole (Noc), 7d compounds at 2 μM concentration.

Take `COc1ccc(-c2nc3ccc(F)cc3s2)cc1OC` [Compound 3d]: the Log10GI50 in the assay with CAKI-1, in the assay on M14, in the assay on MALME-3M, in the assay with SW-620, with SNB-75 and with ACHN was above −4.0 throughout. The Log10GI50 with HL-60 (TB), in the assay on OVCAR-3, in the assay on LOX IMVI, in the assay on NCI/ADR-RES, in the assay on NCI-H522 and with SF-539 was above −4.0 in each case. The Log10GI50 in the assay on HS 578T, in the assay with CCRF-CEM, in the assay on SN12C, with SF-295, in the assay with SNB-19 and in the assay with PC-3 was above −4.0 throughout. Moreover, the Log10GI50 with HOP-62, in the assay on OVCAR-8, in the assay with BT-549, in the assay on SF-268, in the assay on UACC-62 and in the assay on MOLT-4 was above −4.0 throughout. Besides, the Log10GI50 with 786-0, in the assay with UO-31, in the assay on DU-145, in the assay with U251, with EKVX and in the assay with A549/ATCC was above −4.0 in each case. For the same compound, the Log10GI50 in the assay on UACC-257, in the assay on NCI-H23, with K-562 and in the assay on MDA-MB-231/ATCC was above −4.0 each time.

On to `COC(=O)Nc1nc2ccc(C(=O)c3cccs3)cc2[nH]1` [Nocodazole, reference compound], for which the microtubulin organization entry in assay [1] was “disrupted microtubulin organization”.
